“Also recorded” adds a separate entry of the source.
Experiments:
Format in all cases: cell-based, human
[1] = test system: Mia PACA-2 cells; test: Intracellular ROS (H2O2) by flow cytometry of DCF-labeled cells; conditions: Mia PACA-2, 72 hours, serum or IGF-1; trans-resveratrol 100 μM, genistein 100 μM, DPI 15 μM, tiron 10 mM
Protocol: To determine the effect of serum in cancer cells, the following assay was conducted. Mia PACA-2 pancreatic cancer cells were cultured for 72 hours in the absence and presence of serum (15% FBS) or 100 ng/ml insulin growth factor-1 (IGF-1). Dichloroflyorescein diocetate (DCF-DA) was used to label the cells. Intracellular H2O2 was measured by flow cytometry of DCF-labeled cells. Intracellular ROS was measured using oxidation-sensitive cell-permeable fluorescent probe, dichlorofluorescein diacetate (DCF-DA) to measure H2O2. See Royall J A, and Ischiropoulos H. (1993) Arch. Biochem. Biophys. 302:348-355. To measure ROS, cells were collected after incubation, washed with PBS, and incubated for 15 minutes with […] DCF-DA. Samples were analyzed by flow cytometry. The amount of DCF-DA fluorescence correlated with the amount of ROS in the cells To determine the effects of serum, IGF-1, polyphenols and inhibitors of ROS on ROS production in cancer cells, the following assay was conducted. Mia PACA-2 cells were cultured for 72 hours in the presence of serum or IGF-1 with or without antioxidants, intracellular superoxide scavenger tiron (10 mM) or NADPH oxidase inhibitor, diphenylene iodonium (DPI, 15 μM) and trans-resveratrol (100 μM), genistein (100 μM), or a combination of polyphenolic compounds and antioxidants. Intracellular H2O2 was measured by flow cytometry of DCF-labeled cells. Mia PACA-2 cells and BSp73AS cells were cultured in Dulbecco's Modified Eagle's Medium supplemented with 10% heat inactivated FBS, penicillin G (100 U/ml) and streptomycin ([…]) in a humidified atmosphere comprising 5% (v/v) CO2. When the cells were 90% confluent they were detached, washed with alternating centrifugation and resuspension, plated and incubated in the same media with or without FBS or IGF-1 and with or without a given polyphenolic compound and with or without a given ROS inhibitor.

[2] = test system: Mia PACA-2 cells; test: Oligonucleosomal DNA fragmentation by cell death ELISA; conditions: Mia PACA-2, 72 hours, with serum; DPI 15 μM, Tiron 10 mM, genistein 100 μM, trans-resveratrol 100 or 50 μM
Protocol: Mia PACA-2 cells were cultured for 72 hours in the presence of serum with or without 15 μM DPI, 10 mM Tiron, 100 μM genistein, 100 μM or 50 μM trans-resveratrol, or a combination thereof. Oligonucleosomal DNA fragmentation was measured in cell lysates by cell death ELISA.
Annexin staining was conducted as described above. Cells were collected, washed with PBS, and centrifuged for 10 min at 200×g. DNA fragmentation was determined using Cell Death Detection ELISA Plus kit (Roche Molecular Biochemicals).
To determine the role of caspases in the effects of combinations of agents on apoptosis, the effects of caspase-3 activity (DEVDase activity) as well as the effect of the broad spectrum caspase inhibitor, Z-VAD, on apoptosis was measured. Specifically, Mia PACA-2 cells were cultured for 72 hours in the presence of serum with or without 100 μM Z-VAD, 15 μM DPI, 100 μM trans-resveratrol, 100 μM genistein, a combination of trans-resveratrol and DPI, and a combination of genistein and DPI. DEVDase activity was measured in whole cell lysates with a fluorimetric assay. DNA fragmentation was measured in cell lysates by cell death ELISA.
In particular, Mia PACA-2 cells were cultured for 72 hours in the presence of serum with or without 50 μM trans-resveratrol (RS), 15 μM DPI, a combination of DPI and trans-resveratrol (RS+DPI), 10 μM MG-132 alone and in combination with RS, DPI, and RS+DPI. Internucleosomal DNA fragmentation was measured in cell lysates by cell death ELISA.

[3] = test system: Mia PACA-2 cells; test: Annexin staining (flow cytometry); conditions: Mia PACA-2, 72 hours, 0-100 μM, no serum
Protocol: BSp73AS cells are derived from a rat pancreatic carcinoma and both Mia PACA-2 and BSp73AS cells have mutated p53 and express K-ras. Human pancreatic carcinoma cell line Mia PACA-2 and rat pancreatic carcinoma BSp73AS were cultured in Dulbecco's Modified Eagle's Medium supplemented with 10% heat inactivated FBS, penicillin G (100 U/ml) and streptomycin ([…]) in a humidified atmosphere comprising 5% (v/v) CO2. When cells were 90% confluent they were detached, washed with alternating centrifugation and resuspension, plated and incubated in the same media without FBS and with the indicated concentrations of polyphenolic compounds or vehicle for up to 96 hours. Oligonucleotide DNA fragmentation, annexin staining, and PARP proteolysis assays were conducted as follows:
Mia PACA-2 cells were cultured for 72 hours in the presence of 0, 12, 24, 50, and 100 μM rutin, quercetin, or trans-resveratrol. About 1×10^6 cells as determined with a hemocytometer were analyzed for annexin-V binding using an Annexin V-FLUOS Staining Kit (Boehringer Mannheim, Germany). […] Cells were analyzed on a FACScan flow cytometer (Becton Dickinson Immunocytometry System, San Jose, Calif.) equipped with a […] air-cooled 488 nm argon-ion laser. […]

| SMILES | ROS production (intracellular H2O2, DCF fluorescence) [1] | oligonucleosomal DNA fragmentation (apoptosis) [2] | annexin staining (apoptosis) [3] |
| --- | --- | --- | --- |
| O=c1c(-c2ccc(O)cc2)coc2cc(O)cc(O)c12 [genistein] | small increase in ROS production | either no or small effects |  |
| O=c1c(O)c(-c2ccc(O)c(O)c2)oc2cc(O)cc(O)c12 [quercetin] |  |  | increase annexin staining; also recorded: more potent in causing apoptosis than trans-resveratrol |
| Oc1ccc(/C=C/c2cc(O)cc(O)c2)cc1 [trans-resveratrol] | small increase in ROS production | either no or small effects | increase annexin staining |
